From patent publication US11623919B2, “Heterocyclic P2X7 antagonists” (AXXAM S.P.A., priority 2017, dated 2023) come the findings set out here.

Common to all, as to assay type: cell-based
For experiment [1], the target named is T1, P2X7 receptor (Rattus norvegicus, UniProt Q64663).
T1 construct: rP2X7 (IC50; nM); other: rP2X7; HEK-293 cells stably transfected with P2X7 receptor, Bz-ATP at EC80, Fluo-8 NW; potency
T1 sequence (Q64663 1-595): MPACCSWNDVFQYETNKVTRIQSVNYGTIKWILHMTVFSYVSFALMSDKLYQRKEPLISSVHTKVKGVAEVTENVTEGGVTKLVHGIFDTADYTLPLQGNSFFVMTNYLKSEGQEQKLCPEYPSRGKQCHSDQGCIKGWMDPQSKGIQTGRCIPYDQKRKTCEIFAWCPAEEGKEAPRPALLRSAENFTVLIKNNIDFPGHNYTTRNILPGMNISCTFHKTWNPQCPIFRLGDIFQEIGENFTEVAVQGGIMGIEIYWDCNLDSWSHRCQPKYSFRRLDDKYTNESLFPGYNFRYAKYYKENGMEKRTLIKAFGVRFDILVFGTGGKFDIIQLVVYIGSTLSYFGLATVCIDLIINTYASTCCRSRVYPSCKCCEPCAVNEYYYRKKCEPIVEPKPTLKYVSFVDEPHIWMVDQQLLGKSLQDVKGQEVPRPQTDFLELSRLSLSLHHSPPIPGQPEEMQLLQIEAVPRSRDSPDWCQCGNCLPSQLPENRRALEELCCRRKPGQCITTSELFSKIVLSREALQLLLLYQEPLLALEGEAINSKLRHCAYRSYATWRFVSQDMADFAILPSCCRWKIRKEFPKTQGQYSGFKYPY
The experiment can be described thus: Screen Quest Fluo-8 No Wash Calcium Assay (Bz-ATP evoked Ca2+ influx, FLIPR). To be noted: rP2X7; HEK-293 cells stably transfected with P2X7 receptor, Bz-ATP at EC80, Fluo-8 NW; potency ranges A-D. In outline: (§1)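 Compounds were added to Fluo-8-loaded P2X7-transfected HEK-293 cells 5 min before an EC80 Bz-ATP challenge, and Ca2+ influx was then recorded for 3 min. Buffer held 0.3 mM Ca2+ and no Mg2+. Inhibition was normalised to A438079, giving IC50 values.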

The target in experiment [2] is T2, P2X7 receptor (Mus musculus, UniProt Q9Z1M0).
T2 construct: mP2X7 (IC50; nM); other: mP2X7; HEK-293 cells stably transfected with P2X7 receptor, Bz-ATP at EC80, Fluo-8 NW; potency
T2 sequence (Q9Z1M0 1-595): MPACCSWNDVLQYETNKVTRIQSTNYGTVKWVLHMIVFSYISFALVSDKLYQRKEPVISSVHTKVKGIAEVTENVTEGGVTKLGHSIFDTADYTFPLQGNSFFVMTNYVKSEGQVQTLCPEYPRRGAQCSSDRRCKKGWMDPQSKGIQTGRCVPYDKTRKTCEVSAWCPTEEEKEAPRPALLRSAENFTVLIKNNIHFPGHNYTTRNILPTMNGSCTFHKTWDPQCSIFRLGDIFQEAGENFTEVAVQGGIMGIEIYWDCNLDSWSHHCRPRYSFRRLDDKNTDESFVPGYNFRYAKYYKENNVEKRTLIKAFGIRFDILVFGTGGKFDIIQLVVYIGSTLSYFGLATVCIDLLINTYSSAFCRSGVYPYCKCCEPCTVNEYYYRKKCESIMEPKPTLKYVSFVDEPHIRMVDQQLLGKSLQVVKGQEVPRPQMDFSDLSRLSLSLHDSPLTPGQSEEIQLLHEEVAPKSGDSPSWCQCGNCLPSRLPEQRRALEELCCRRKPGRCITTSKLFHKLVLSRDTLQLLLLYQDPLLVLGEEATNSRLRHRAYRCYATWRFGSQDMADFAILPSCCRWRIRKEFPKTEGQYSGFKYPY
The experiment is described as above. To be noted: mP2X7; HEK-293 cells stably transfected with P2X7 receptor, Bz-ATP at EC80, Fluo-8 NW; potency ranges A-D. In a few lines:
as §1

Experiment [3] has as its target T3, P2X7 receptor (Homo sapiens, UniProt Q99572).
T3 sequence (Q99572 1-595): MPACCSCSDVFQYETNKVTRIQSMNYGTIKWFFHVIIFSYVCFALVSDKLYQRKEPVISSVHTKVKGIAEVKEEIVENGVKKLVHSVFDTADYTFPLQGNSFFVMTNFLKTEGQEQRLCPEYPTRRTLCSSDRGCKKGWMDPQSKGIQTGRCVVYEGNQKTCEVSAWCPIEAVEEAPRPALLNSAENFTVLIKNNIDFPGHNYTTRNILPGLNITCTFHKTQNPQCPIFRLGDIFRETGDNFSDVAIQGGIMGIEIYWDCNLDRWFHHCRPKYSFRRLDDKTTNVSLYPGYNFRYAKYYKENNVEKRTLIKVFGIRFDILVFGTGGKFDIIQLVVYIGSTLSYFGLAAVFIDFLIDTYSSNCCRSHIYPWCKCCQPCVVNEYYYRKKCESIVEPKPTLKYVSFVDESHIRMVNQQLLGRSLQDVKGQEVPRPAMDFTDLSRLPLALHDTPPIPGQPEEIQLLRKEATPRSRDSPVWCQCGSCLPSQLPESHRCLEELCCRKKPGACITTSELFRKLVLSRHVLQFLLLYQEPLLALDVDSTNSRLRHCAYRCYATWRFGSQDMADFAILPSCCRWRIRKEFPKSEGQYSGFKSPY
In words: Automated patch-clamp (QPatch16X) P2X7 channel assay. Also on record: expressed in transfected cells; host or cells: HEK-293. To be noted: HEK-293 cells expressing P2X7 channels; whole-cell, held at -80 mV; 100 microM BzATP; compound 1, 10, 100 and 1000 nM; read-out: Q-Patch (IC50). Here is the method:
In order to directly monitor the block of P2X7 channel, an electrophysiological assay was developed and implemented on the QPatch16X automated electrophysiology instrument.
HEK-293 cells expressing the P2X7 channels were cultured in modified EMEM.
72 hours before experiment, 5 million cells were seeded onto T225 flasks. Just before the experiment cells were washed twice, detached from the flask with trypsin-EDTA, re-suspended in the suspension solution and placed on the QPatch 16x.
The compounds (20 mM in a 100% DMSO) stored at −20° C. were prepared the day of the experiment (a first dilution 1:20 in 100% DMSO to prepare a 1 mM stock solution, then a 1 microM solution in external solution+a serial dilution 1:10).
The standard whole-cell voltage clamp experiments were performed at room temperature. From these experiments the multihole technology was used and the data were sampled at 2 KHz.
The intracellular solution contained (mM) 135 CsF, 10 NaCl, 1 EGTA, 10 HEPES, (pH 7.2 with CsOH) whereas the extracellular contained (mM) 145 NaCl, 4 KCl, 0.5 MgCl2, 1 CaCl2, 10 HEPES, 10 Glc (pH 7.4 with NaOH).
After establishment of the seal and the passage in the whole cell configuration, the cells were held at −80 mV. The P2XR7 current was evoked by applying 100 microM of BzATP alone (4 times) and then in the presence increasing concentrations of the compound under investigation (1, 10, 100 and 1000 nM).
The pre-incubation periods 5 to 8 contain increasing concentrations of the compound of interest (1, 10, 100 and 1000 nM), as illustrated in FIGURE (application protocol).
The maximal inward current evoked by BzATP in absence or presence of increasing concentrations of the compounds under investigation was measured and normalized. The potential […] effect was measured as % of control and as IC50 determined fitting the dose-response curves data with the following equation: Y=100/(1+10^((Log IC50−X)*HillSlope))
A general note: The patch-clamp technique gives a direct electrical read-out from membranes.

For experiment [4], the target named is T3, P2X7 receptor. In words: Screen Quest Fluo-8 No Wash Calcium Assay (Bz-ATP evoked Ca2+ influx, FLIPR). More on the design: hP2X7 (IC50; nM); other: hP2X7; HEK-293 cells stably transfected with P2X7 receptor, Bz-ATP at EC80, Fluo-8 NW; potency. To be noted: hP2X7; HEK-293 cells stably transfected with P2X7 receptor, Bz-ATP at EC80, Fluo-8 NW; potency ranges A-D. In a few lines: as §1

pIC50: −log10 of the molar value.

The IC50 is the concentration that gives 50% inhibition. In general, pIC50 refers to the negative decadic logarithm of the IC50, by convention in mol/L. In the case of `CC(c1ccccc1)n1c(Cc2c(F)cccc2Cl)noc1=O` (centres unmarked) [Example 49, 3-[(2-chloro-6-fluorophenyl)methyl]-4-(1-phenylethyl)-4,5-dihydro-1,2,4-oxadiazol-5-one], the IC50 was 200 to 1000 nM at P2X7 receptor [1], 1000 to 10000 nM on P2X7 receptor [2] and 1000 to 10000 nM on P2X7 receptor [4]. Also, the pIC50 on P2X7 receptor [3] is 6.41.

On to `O=c1onc(Cc2c(F)cccc2Cl)n1Cc1cccc(Cl)c1Cl` [Example 59, 3-[(2-chloro-6-fluorophenyl)methyl]-4-[(2,3-dichlorophenyl)methyl]-4,5-dihydro-1,2,4-oxadiazol-5-one], for which the IC50 at P2X7 receptor [1], on P2X7 receptor [2] and at P2X7 receptor [4] was 200 to 1000 nM throughout. For the same compound, the pIC50 at P2X7 receptor [3] is 6.45.
